Experimental data published in patent US20170196927A1, “COMPOSITION FOR ARTHRITIS, MOBILITY AND DELAY AGEING” (Mars, Incorporated, priority 2014, published 2017).
Read-outs that look alike come from different tables or passages of the source.

Tests used:
[1] = test system: Rabbit Articular Chondrocytes (RAC); test: Cellular viability of RAC (MTS assay and trypan blue exclusion); type: cell-based
Experimental: (§1) An in vitro study was run to evaluate the efficacy of a composition containing chondroitin, hydrolysed collagen and green tea extract on Rabbit Articular Chondrocytes (RAC). RAC were cultured in DMEM supplemented with 10% Fetal Calf Serum, glutamine and 1% penicillin/streptomycin (Gibco, Life Technologies AG, Switzerland) at 37° C. in an incubator with an atmosphere of 5% CO2.
Cellular viability was measured using an MTS assay (Cell Titer 96™ MTS, Promega, France) as per manufacturer's instructions. Cells were also counted using a Malassez cell and cellular viability was assessed using trypan blue exclusion dye technique, which colours dead cells in blue.
Rabbit Articular Chondrocytes (RAC) were incubated with the different compounds separately or blended together to evaluate their cytotoxicity.

[2] = test system: inducible isoform Nitric oxide Synthase (iNoS); test: RNA expression of iNoS (RT-PCR) in IL-1β stimulated RAC; type: cell-based, Rabbit; details: for Effect on iNos expression (in words): IL-1β stimulated RAC; for iNoS Expression: relative RNA expression (untreated = 1.0), GAPDH reference, 24 h pre-treatment, IL-1β 10 ng/ml 48 h, green tea extract 50 μM, collagen 0.5 mg/ml, chondroitin 200 μg/ml
Experimental: as §1
(§2) RAC were plated in 6 well plates (3×10^5 cells/cm2). The medium was replaced with fresh medium containing each compound chondroitin, hydrolysed collagen and green tea extract or a mixture of all three compounds for 24 hours prior to stimulation with IL-1β (10 ng/ml) (Merck Millipore, USA). RAC were then incubated for 48, hours after which RNA expression of cyclooxgenase-2 (COX-2), inducible isoform Nitric oxide Synthase (iNoS) and Matrix Metallopeptidase-13 (MMP13) was measured as markers of arthritis.
(§3) NO and PGE2 production was measured using Cayman Chemicals (Bertin Pharma, France) following the manufacturer's protocol. NO production was estimated spectrophotometrically by measuring the accumulation of nitrites in the culture supernatants by Griess reaction using a standard curve prepared with sodium nitrite. PGE2 was estimated using a highly sensitive and specific Enzyme Immunoassay Kit. RNA extraction was performed by extracting RNA using the NucleoSpin™ RNA II Kit (Macherey-Nagel, Hoerdt, France) as per manufacturer's instructions. RNA was reverse-transcribed with SupersScript III (Life Technologies) and real-time polymerase chain reaction (RT-PCR) was performed with SYBR Select mix (Life Technologies). Primer sequences COX-2, iNoS and MMP13 was used to quantify the relative RNA expression. Primer sequence for GAPDH was used as the reference gene.

cyclooxgenase-2 (COX-2) = test: RNA expression of COX-2 (RT-PCR) in IL-1β stimulated RAC; type: cell-based, Rabbit; details: for Effect on COX2 expression (in words): IL-1β stimulated RAC; for COX2 Expression: relative RNA expression (untreated = 1.0), GAPDH reference, 24 h pre-treatment, IL-1β 10 ng/ml 48 h, green tea extract 50 μM, collagen 0.5 mg/ml, chondroitin 200 μg/ml
Experimental: as §1, §2, §3

[3] = test system: Matrix Metallopeptidase-13 (MMP13); test: RNA expression of MMP13 (RT-PCR) in IL-1β stimulated RAC; type: cell-based, Rabbit
Experimental: as §1, §2
NO and PGE2 production was measured using Cayman Chemicals (Bertin Pharma, France) following the manufacturer's protocol. NO production was estimated spectrophotometrically by measuring the accumulation of nitrites in the culture supernatants by Griess reaction using a standard curve prepared with sodium nitrite. PGE2 was estimated using a highly sensitive and specific Enzyme Immunoassay Kit. […] Primer sequences COX-2, iNoS and MMP13 was used to quantify the relative RNA expression. […]

Substance | Cellular toxicity (MTS measurements and Trypan blue exclusion) ([1]; 24 and 48 hours of incubation, large range of concentration (data not shown)) | Effect on iNos expression (in words) [2] | iNoS Expression [2] | Effect on COX2 expression (in words) (cyclooxgenase-2 (COX-2)) | COX2 Expression (cyclooxgenase-2 (COX-2)) | Effect on MMP13 expression (in words) [3] | Cellular toxicity (MTS measurements and Trypan blue exclusion) [1]
Chondroitin | did not reveal any cellular toxicity | seems to have no effect | 5.3 | seems to have no effect | 10.7 | seems to have no effect | –
Collagen | – | decreases the expression | 3.9 | decreases the expression | 7.1 | decreases the expression | did not reveal any cellular toxicity
